In patent publication US8546404B2, “Compounds that are ERK inhibitors” (Merck Sharp & Dohme, priority 2005, dated 2013) one finds AUC and IC50 data, which are given here for 6 compounds.

The nature of series [1]: Cassette Accelerating Rapid Rat Screen (CARRS), AUC during the first 6 hours. Conditions: male, Sprague-Dawley, plasma, 10 mg/kg, PO, AUC during the first 6 hours (AUC6hr). The series is classed as in vivo, Male Sprague-Dawley rats. Here is the method:
The AUC (Area Under the Concentration-Time Curve During the First 6 Hours (AUC6hr) in Table 30 Below was Determined Using the Protocol of Cassette Accelerating Rapid Rat Screen (CARRS)
Animal Dosing and Sample Collection
Male Sprague-Dawley rats (Charles River, Co.) were pre-cannulated (femoral artery) in order to facilitate precise blood sampling times, and to reduce the stress on the animals caused by serial bleedings. Following an overnight fast, two rats were dosed orally with one compound at a dose of 10 mg/kg in a 5-mL/kg dose volume. Blood was collected into heparin-containing tubes serially from each animal at 0.5, 1, 2, 3, 4 and 6 h post-dosing and centrifuged to generate plasma. Approximately 100 μL of plasma were collected at the individual time points. The plasma samples were stored at −20° C. until analysis.
Plasma Sample and Standard Curve Preparation
A set of 12 rat plasma samples was generated for each NCE (i.e. 6 timepoints and n=2 rats). These 12 samples were pooled across the two rats at each timepoint to provide 6 pooled samples (one sample per time point) for each NCE. The pooled samples were assayed as cassettes of six (36 samples total) to provide data on the six compounds. The 50-μL aliquots of the 36 plasma samples were placed into individual wells of a 96-well plate. An additional compound (often a structural analog of the test compounds) was selected as the internal standard. A mini-calibration curve was prepared (three points plus a zero) for each compound assayed. Drug-free rat plasma was measured into 1-mL aliquots and each aliquot was spiked with known concentrations of the compounds to generate standards of the desired concentrations. The concentrations of the standards were chosen to bracket the expected concentration of the pooled samples based on historical data from previous studies on other compounds. For this work, the standards were set to contain concentrations of 25, 250 and 2500 ng NCE/mL plasma. The plasma standards were precipitated in duplicate along with the samples. Protein precipitation occurred after addition of 150 μL of acetonitrile containing the internal standard at a concentration of 1 ng/mL into each sample well using the Tomtec Quadra 96 system. The precipitated samples and standards were vortexed and centrifuged in the 96-well plate. Approximately 50-100 μL of the supernatant were removed and placed into a fresh 96-well plate using the Tomtec Quadra 96 system. A volume of 5-10 μL of the supernatant was used for analysis by HPLC-MS/MS. The mini-standard curve was run in duplicate, once before and once after the samples. Thus, a total of 14 study samples plus standards were analyzed per compound. In addition, solvent blanks were injected before and after each set of 14 and after the highest calibration standard for each compound; therefore, a total of 103 injections were made into each HPLC system for each set of six compounds. Multiple solvent blank injections could be made from a single well. Twelve solvent blank wells were designated in each 96-well plate. Thus, one batch (cassette) of six NCEs was prepared and assayed using one 96-well plate format.
All the compounds were analyzed using selected reaction monitoring (SRM) methods with LC/MS/MS instruments. Once the method development had been completed, the assay was quickly set up using a standard injection sequence template for the CARRS assay.

In series [2] the target is fully phosphorylated, active Mouse ERK2 protein (Mus musculus (Mouse), UniProt P63085). Put plainly: Active ERK2 Assay (IMAP format). Conditions: read-out: AERK2 IC50. It is filed as biochemical. Here is the method: Activated ERK2 activity was also determined in the IMAP assay format using the procedure outlined above. […] Reactions proceeded for 30 minutes before termination by addition of 60 μl IMAP detection beads in binding buffer. Plates were read as above after 30 minute binding equilibration.
Sequence of fully phosphorylated, active Mouse ERK2 protein (P63085 whole entry): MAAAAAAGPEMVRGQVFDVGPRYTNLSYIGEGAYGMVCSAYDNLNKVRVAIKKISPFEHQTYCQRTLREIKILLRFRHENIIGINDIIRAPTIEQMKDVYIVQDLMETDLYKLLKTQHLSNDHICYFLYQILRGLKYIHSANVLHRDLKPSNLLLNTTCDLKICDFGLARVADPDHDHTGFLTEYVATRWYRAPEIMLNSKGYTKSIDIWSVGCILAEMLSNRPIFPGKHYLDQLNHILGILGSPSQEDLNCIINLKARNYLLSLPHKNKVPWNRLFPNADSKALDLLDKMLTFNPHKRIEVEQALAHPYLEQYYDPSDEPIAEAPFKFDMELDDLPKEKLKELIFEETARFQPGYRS

The term AUC denotes the area under the concentration-time curve, a measure of exposure. With `COC[C@@]1(C(=O)Nc2ccc3[nH]nc(-c4ccnc(C5CC5)c4)c3c2)CCN(CC(=O)N2CC=C(c3ccc(-c4ncccn4)cc3)CC2)C1` [Example 336, 3-Methoxymethyl-1-{2-[4-(4-pyrimidin-2-yl-phenyl)-3,6-dihydro-2H-pyridin-1-yl]-acetyl}-pyrrolidine-3-carboxylic acid [3-(2-cyclopropyl-pyridin-4-yl)-1H-indazol-5-yl]-amide], the AUC in series [1] worked out at 7.22 µM·h.

As usually defined, the IC50 is the midpoint of a concentration-inhibition curve. For `CO[C@@]1(C(=O)Nc2ccc3[nH]nc(-c4ccnc(C5CC5)c4)c3c2)CCN(CC(=O)N2CC=C(c3ccc(-c4ncccn4)cc3)CC2)C1` [Example 459], in series [1], the area under the curve (AUC) turned out to be 1.2 µM·h. The IC50 in series [2] worked out at 2.5 nM. For `CO[C@@]1(C(=O)Nc2ccc3[nH]nc(-c4ccc(F)cc4)c3c2)CCN(CC(=O)N2CCC(c3ccc(-c4ncccn4)cc3)CC2)C1` [Example 479], in that order: 2.2 µM·h and 9.1 nM. For `CS[C@@]1(C(=O)Nc2ccc3[nH]nc(-c4ccc(F)cc4)c3c2)CCN(CC(=O)N2CC=C(c3ccc(-c4ncccn4)cc3)CC2)C1` [Example 613], in that order: 25.9 µM·h and 10 nM. In series [1], `CCNc1nnc(-c2ccc(C3=CCN(C(=O)CN4CC[C@@](OC)(C(=O)Nc5ccc6[nH]nc(-c7ccc(F)cc7)c6c5)C4)CC3)c(F)c2)o1` [Example 622, 1-(2-{4-[4-(5-Ethylamino-[1,3,4]oxadiazol-2-yl)-2-fluoro-phenyl]-3,6-dihydro-2H-pyridin-1-yl}-2-oxo-ethyl)-3-methoxy-pyrrolidine-3-carboxylic acid [3-(4-fluoro-phenyl)-1 indazol-5-yl]-amide] displayed an area under the curve (AUC) of 1.13 µM·h. Further, the half-maximal inhibitory concentration (IC50) in series [2] came out at 5 nM.

On to `CO[C@@]1(C(=O)Nc2ccc3[nH]nc(-c4ccc(F)cc4)c3c2)CCN(CC(=O)N2CC=C(c3ccc(-c4ncccn4)cc3F)CC2)C1` [Example 825], for which the AUC in series [1] was 1.1 µM·h. Further, the half-maximal inhibitory concentration (IC50) in series [2] stood at 20 nM.
